Columns and labels:
APP/PS2 mice = assay: Morris water maze test in Alzheimer's disease mouse model; assay type: in vivo; conditions: for memory capabilities, free-swimming analysis on the 7th day: intranasal, every day for 4 weeks, CD1-012 1 mg/Kg, palmatine 10 mg/Kg, FIG. 10
Method: Subsequently, to analyze the representative symptom improvement effect of Alzheimer's disease, spatial learning and memory abilities were measured through the Morris water maze test (represented in FIG. 10, 9-10 mice per group). During the behavior test, from day 1 to day 6, training was conducted, where the time taken from the start to climb the escape stand was measured 4 times. On the 7th day, free-swimming test was conducted for 60 seconds, and the time spent in the area where the escape stand was located during training was measured to analyze the learning and memory abilities of the experimental animals. The results were represented in […].
For the purpose of comparing the treatment effect of the CD1-012 synthesized in Example 1 with that of palmatine in Comparative Example 2 on an Alzheimer's disease animal model, APP/PS2 mice were intranasally administered with the CD1-012 at a concentration of 1 mg/Kg and palmatine at 10 mg/Kg every day for 4 weeks. The treatment effects on dementia were confirmed with a water maze test, and the results were represented in FIG. 10 (9-10 mice per group).

BEAS-2B cell line [1] = assay: Mitophagy activity with mt-Keima fluorescent protein in BEAS-2B cells (flow cytometry / confocal microscope); assay type: cell-based, human
Description: (§1) To analyze the mitophagy-promoting activity effect of the isoquinoline derivative compound synthesized in the Example 1 (hereinafter, CD1-012), a quantification method for mitophagy activity, using a mt-Keima fluorescent protein, was utilized, which can measure the mitophagy activity in living cells through flow cytometry or a confocal microscope.
To analyze the mitophagy-promoting activity effect of CD1-012 synthesized in Example 1, the BEAS-2B cell line, which is a human normal lung cell line, was induced to express the mt-Keima fluorescent protein. Following this, the CD1-012 (15 μM) and the compound of Comparative Example 1, CCCP (10 μM), were treated for 24 hours. After the treatment, the mitophagy activity of each sample was measured, and the results were represented in FIG. 1.
Specifically, FIG. 1A represents the analysis results using flow cytometry (FACS), FIG. 1B represents the analysis results using a confocal microscope, and FIG. 1C represents the measurement results of the quantitative changes in the mitochondria using a fluorescent protein, mito-YFP, which includes a targeting sequence to transport protein to the mitochondria.
To analyze whether CD1-012 synthesized in Example 1 promotes mitophagy activity in a concentration and time-dependent manner, the BEAS-2B cell line expressing mt-Keima was treated with varying concentrations of CD1-012 or a constant concentration (15 μM) for different durations. The mitophagy activity was then measured using flow cytometry, with the concentration-dependent mitophagy activity results represented in FIG. 3A and the time-dependent mitophagy activity results in FIG. 3B.
(§2) To confirm whether the synthesized CD1-012 in Example 1 specifically increases mitophagy activity, the CD1-012 (15 μM) of the Example 1 and the CCCP (10 μM) of Comparative Example 1 were treated to the BEAS-2B cell line expressing mt-Keima for 18 hours. Subsequently, the mitophagy activity was analyzed using a confocal microscope, and the results were represented in FIG. 4A. Moreover, the BEAS-2B cell line expressing Keima fluorescent protein was cultured in HBSS (Hanks' balanced salts solution) for 3 hours to induce a nutrient-deficient state (starvation, starv.). The autophagy activity was measured by comparing the sample treated with the CD1-012 (15 μM) for hours using a confocal microscope, and the results were represented in FIG. 4B.
The mitophagy-promoting activity effect of each sample was compared, and the results were represented in FIG. 5.

[2] = system: PINK1 knockdown cells (shPINK1), BEAS-2B; assay: Mitophagy activity in PINK1 knockdown (shPINK1) BEAS-2B cells (FACS); assay type: cell-based, human; conditions: CCCP 10 μM, CD1-012 15 μM, 18 hours, FIG. 7
Method: In order to analyze whether the activation of mitophagy by the CD1-012 synthesized in Example 1 is dependent on the PINK1-Parkin pathway, the PINK 1 was knockdown using short hairpin RNA (shRNA) in BEAS-2B cell lines. Then, CCCP (10 μM) from Comparative Example 1 and the CD1-012 (15 μM) were treated for 18 hours, and the mitophagy activity of each sample was analyzed using a flow cytometry (FACS) and represented in FIG. 7.

[3] = system: HeLa cervical cancer cell line (Hela-Parkin); assay: Mitophagy activity in HeLa-Parkin cells (FACS); assay type: cell-based; conditions: FIG. 2B
Description: as §1
(§3) To determine whether CD1-012 synthesized in Example 1 enhances mitophagy activity in various cell lines, the human neuroblastoma cell line, SH-SY5Y, expressing mt-Keima fluorescent protein and HeLa cervical cancer cell line (Hela-Parkin) expressing Parkin (E3ligase) were treated with CD1-012 and CCCP of Comparative Example 1. Following this treatment, the mitophagy activity of each sample was analyzed using flow cytometry (FACS), and the results were represented in FIG. 2.
(§4) Specifically, FIG. 2A represents the analysis results for the SH-SY5Y cell line, and FIG. 2B represents the analysis results for the HeLa-Parkin cell line.

[4] = system: SH-SY5Y overexpressing APPswd/ind protein; assay: ATP generation level in Alzheimer's disease cell model; assay type: cell-based, human; conditions: CD1-012 20 μM, measured 48 hours later, FIG. 8
Method: To verify whether the CD1-012 synthesized in Example 1 improves mitochondrial dysfunction in the Alzheimer's disease cell model, the human neuron cell line SH-SY5Y was overexpressed with APPswd/ind protein causing Alzheimer's disease to prepare the Alzheimer's disease cell model. After treating the cell model with the CD1-012 (20 μM) for hours, the ATP generation level, an indicator of mitochondrial function, was measured 48 hours later and the results were represented in FIG. 8.

[5] = system: mitochondrial membrane potential; assay: Mitochondrial membrane potential, TMRM assay; assay type: cell-based; conditions: CD1-012 10 μM or 15 μM, CCCP 10 μM, FIG. 6
Method: (§5) To determine if the CD1-012 synthesized in Example 1 induces mitochondrial dysfunction similar to CCCP of Comparative Example 1, the CD1-012 (10 μM or 15 μM) and the CCCP (10 μM) were treated for hours. Afterward, the mitochondrial membrane potential and the level of mitochondrial reactive oxygen species (ROS) of each sample were analyzed, and the results were represented in FIG. 6.
(§6) The mitochondrial membrane potential was analyzed using the TMRM (tetramethylrhodamine methyl ester) assay, and the mitochondrial ROS was analyzed using the MitoSOX assay.

[6] = system: mitochondrial reactive oxygen species (ROS); assay: Mitochondrial reactive oxygen species, MitoSOX assay; assay type: cell-based; conditions: CD1-012 10 μM or 15 μM, CCCP 10 μM, FIG. 6
Method: as §5, §6

SH-SY5Y = assay: Mitophagy activity in SH-SY5Y cells expressing mt-Keima (FACS); assay type: cell-based, human; conditions: FIG. 2A
Description: as §1, §3, §4

BEAS-2B cell line [7] = assay: Autophagy activity in BEAS-2B cells expressing Keima fluorescent protein (confocal microscope); assay type: cell-based, human; conditions: CD1-012 15 μM; compared with HBSS starvation 3 hours; FIG. 4B
Method: as §2

[8] = APP/PS2 mice, 1 mg/kg every day for 4 weeks, nasal administration, FIG. 9
[9] = BEAS-2B mt-Keima, flow cytometry, FIG. 3A

`COc1cc2c(cc1OC)-c1cc3ccc(OC)c(OC)c3c[n+]1CC2` [palmatine, Palmatine, reference compound] was tested, and the “memory capabilities, free-swimming analysis on the 7th day” value (APP/PS2 mice; APP/PS2 mice) was “improved similarly” and the “concentration at which maximum mitophagy activity was reached” value (BEAS-2B cell line [1]; BEAS-2B mt-Keima, FIG. 5) was 400 µM.
With `Oc1cc2c(cc1O)-c1cc3ccc(O)c(O)c3c[n+]1CC2` [CD1-012, 2,3,9,10-Tetrahydroxy-5,6-dihydroisoquinolino[3,2-a]isoquinolin-7-iumbromide] the “mitophagy activation in shPINK1 cells compared to the control cell line (shNT)” value [2] was “did not show any significant difference”, the “mitophagy activity compared to the control group” value [3] was “significant increase in mitophagy activity” and the “concentration for similar dementia treatment effect, times lower than that of palmatine” value (APP/PS2 mice; 1 mg/Kg vs 10 mg/Kg palmatine) was 10 times. The “learning effect (escape latency) during 6 days of training” value (APP/PS2 mice; [8]) was “learning effect from day 3 to day 6”, the “time spent near the escape platform, free-swimming analysis on the 7th day” value (APP/PS2 mice; [8]) was “recovered close to that of normal mice” and the “memory capabilities, free-swimming analysis on the 7th day” value (APP/PS2 mice; APP/PS2 mice) was “improved similarly”. The “time from which a significant increase in mitophagy activity was observed” value (BEAS-2B cell line [1]; BEAS-2B mt-Keima, 15 μM, flow cytometry, FIG. 3B) was 3 h, the “concentration exhibiting mitophagy activity similar to the maximum of the comparators” value (BEAS-2B cell line [1]; BEAS-2B mt-Keima, FIG. 5) was 10 µM and the “concentration from which mitophagy activity began to significantly increase” value (BEAS-2B cell line [1]; [9]) was 7.5 µM. The “concentration up to which mitophagy activity continued to increase concentration-dependently” value (BEAS-2B cell line [1]; [9]) was 17.5 µM, the “mitophagy activity compared to the untreated control group” value (BEAS-2B cell line [1]; BEAS-2B mt-Keima, CD1-012 15 μM, 24 hours, FIG. 1) was “significant increase in mitophagy activity” and the “mitophagy activity compared with CCCP-treated sample” value (BEAS-2B cell line [1]; flow cytometry (FIG. 1A), CD1-012 15 μM vs CCCP 10 μM, 24 hours) was “increased as significantly as that of the sample treated with the representative mitophagy promoting compound, CCCP”. The “mitophagy-promoting activity effect, times better than berberine” value (BEAS-2B cell line [1]; from FIG. 5 concentrations) was “approximately 8 times”, the “mitophagy-promoting activity effect, times better than palmitate” value (BEAS-2B cell line [1]; from FIG. 5 concentrations) was “about 40 times” and the ATP production level [4] was “recover and increase”. The mitochondrial membrane potential [5] was “did not observe a decrease in the mitochondrial membrane potential”, the “mitochondrial ROS” value [6] was “did not increase mitochondrial ROS” and the “mitophagy activity compared to the control group” value (SH-SY5Y) was “significant increase in mitophagy activity”. For the same compound, the autophagy activity (BEAS-2B cell line [7]) was “did not increase autophagy activity”.
In the case of `N#CC(C#N)=NNc1cccc(Cl)c1` [CCCP, Carbonyl Cyanide 3-chlorophenylhydrazone, reference compound], the “mitophagy activation in shPINK1 cells compared to the control cell line (shNT)” value [2] is reported as “significantly decreased”, the mitochondrial membrane potential [5] is reported as “significantly reduced the mitochondrial membrane potential” and the “mitochondrial ROS” value [6] is reported as “significantly increased mitochondrial ROS”.
For `COc1ccc2cc3[n+](cc2c1OC)CCc1cc2c(cc1-3)OCO2` [berberine, Berberine, reference compound], the “concentration at which maximum mitophagy activity was reached” value (BEAS-2B cell line [1]; BEAS-2B mt-Keima, FIG. 5) was 80 µM.

From patent publication US20240150341A1, “COMPOSITION FOR PREVENTING OR TREATING DISEASES CAUSED BY MITOCHONDRIAL DYSFUNCTION, CONTAINING ISOQUINOLINE DERIVATIVE COMPOUND AS ACTIVE INGREDIENT” (ALTMEDICALCO., LTD., priority 2021, published 2024)
